{
  "source": "patent EP4085921A1",
  "about": "(priority 2021, dated 2022)",
  "key": {"[1]": {"conditions": "as a function of the treatment time interval; Fig. 18"}},
  "data": [
    {"smiles": "CC[C@H](C)[C@H](NC(=O)[C@H](Cc1ccc(O)cc1)NC(=O)[C@@H](NC(=O)[C@H](CCCNC(=N)N)NC(=O)[C@@H](N)CC(=O)O)C(C)C)C(=O)N[C@@H](Cc1c[nH]cn1)C(=O)N1CCC[C@H]1C(=O)O", "note": "[Angiotensin-(1-7), Asp-Arg-Val-Tyr-Ile-His-Pro]", "values": [
      {"measurement": "side-effects in the clinical trial", "setting": "5 to 25 mcg/kg/24h range as stated", "value": "very safe without severe Ang-(1-7)-related side-effects"},
      {"measurement": "hypotension as side-effect", "setting": "Ang-(1-7) administration in the defined concentration range", "value": "not a side-effect"},
      {"measurement": "averaged blood pressure (SBP, MAP, DBP)", "setting": "at 11 am and 11 pm as a function of ICU days with infusion, Fig. 10, 11", "value": "not significantly influenced"},
      {"measurement": "averaged heart rate", "setting": "at 11 am and 11 pm as a function of ICU days with infusion, Fig. 14, 15", "value": "not influences"},
      {"measurement": "average temperatures", "setting": "at 11 am during infusion, Fig. 16", "value": "not significantly influenced"},
      {"measurement": "averaged Angiotensin-(1-7) levels", "setting": "[1]", "value": "does not result in increased Ang-(1-7) levels"}
    ]}
  ]
}
